# Activity calls are given as the source filed them. The rule behind the calls is not given here.
# Assays:
# [1] = molecular target: T1, Stimulator of interferon genes protein (Homo sapiens, UniProt Q86WV6); assay: Agonist activity at STING in human THP-1 cells harboring IRF-inducible luciferase reporter construct assessed as increase in relative fluorescence unit incubated for 12 hrs by Quanti-luc reagent based assay; format: cell-based
# [2] = Stability in human plasma assessed as interconversion into (S)-4-(5,6-Dimethoxybenzo[b]selenophen-2-yl)-2-ethyl-4-oxobutanoic acid incubated for 24 hrs by normal-phase HPLC analysis; format: ADME, cell-free
# [3] = molecular target: T1, Stimulator of interferon genes protein; assay: Agonist activity at STING in human THP-1 cells harboring IRF-inducible luciferase reporter construct assessed as fold change in ISG signalling at 20 uM incubated for 12 hrs by Quanti-luc reagent based assay relative to control; format: cell-based; details: filed as agonist
# [4] = test system: Mus musculus; assay: Immunostimulatory activity in naive […] mouse implanted with mouse MC38 cells assessed as increase in NK cells in spleen at 30 mg/kg, po by FACS analysis; format: functional, organism-based; details: MC-38
# [5] = Clearance in Sprague-Dawley rat at 5 mg/kg, iv measured for 1440 mins by LC-MS/MS analysis; format: ADME, organism-based; details: in vivo
# [6] = test system: Mus musculus; assay: Immunostimulatory activity in naive […] mouse implanted with mouse MC38 cells assessed as increase in NKT cells in spleen at 30 mg/kg, po by FACS analysis; format: functional, organism-based; details: MC-38
# [7] = test system: CT26; assay: Immunological memory derived antitumor activity against mouse CT26 cells implanted in naive BALB/c mouse assessed as suppression of tumor growth at 20 mg/kg, po administered once every 5 days for 23 days starting from day 8 followed by reinoculation of cells into mouse on day 61 and measured for 50 days; format: functional; details: time 50 day
# [8] = test system: CT26; assay: In vivo activation of STING in naive BALB/c mouse implanted with mouse CT26 cells assessed as increase in IFN-gamma level in plasma at 20 mg/kg, po administered as single dose and measured after 4 hrs by ELISA; format: functional, organism-based
# [9] = molecular target: T2, Stimulator of interferon genes protein (Mus musculus) (UniProt Q3TBT3); assay: Agonist activity at STING in mouse MEF cells assessed as increase in CXCL10 mRNA expression at 10 uM measured after 3 hrs by qRT-PCR analysis; format: cell-based; details: filed as agonist
# T2 sequence (whole entry): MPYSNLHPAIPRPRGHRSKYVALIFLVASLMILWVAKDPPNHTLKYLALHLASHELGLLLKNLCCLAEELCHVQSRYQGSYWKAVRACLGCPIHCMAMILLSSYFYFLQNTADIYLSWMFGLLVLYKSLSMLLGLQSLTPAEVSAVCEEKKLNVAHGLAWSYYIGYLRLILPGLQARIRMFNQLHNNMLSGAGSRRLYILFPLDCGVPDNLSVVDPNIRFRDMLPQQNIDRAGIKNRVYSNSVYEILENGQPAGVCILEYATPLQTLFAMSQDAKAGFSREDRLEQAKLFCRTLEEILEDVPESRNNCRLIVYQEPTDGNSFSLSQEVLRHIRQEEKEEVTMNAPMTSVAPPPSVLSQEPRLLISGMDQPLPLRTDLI
# [10] = AUC (0 to infinity) in Sprague-Dawley rat at 50 mg/kg, po measured for 1440 mins by LC-MS/MS analysis; format: ADME, organism-based; design: time 1440 min, dose 50 mg/kg, route po; details: in vivo
# [11] = Toxicity in immunocompetent BALB/c mouse assessed as reduction in body weight at 30 mg/kg, po measured after 3 days; format: organism-based; details: in vivo, 72 h, time 3 day
# [12] = molecular target: hERG (Homo sapiens, UniProt Q12809); assay: Inhibition of hERG expressed in HEK293 cells at 10 uM incubated for 5 mins by QPatch automated patch-clamp technique relative to control; format: toxicity, cell-based; details: HEK293 cells that express hERG
# [13] = test system: CT26; assay: Antitumor activity against mouse CT26 cells implanted in naive BALB/c mouse assessed as tumor growth regression at 20 mg/kg, po administered once every 5 days and measured after 30 days by digital caliper analysis relative to control; format: functional; details: time 30 day
# [14] = Half life in Sprague-Dawley rat at 5 mg/kg, iv measured for 1440 mins by LC-MS/MS analysis; format: ADME, organism-based; details: in vivo
# [15] = test system: 4T1-Luc; assay: Antitumor activity against mouse 4T1-Luc cells implanted in naive BALB/c mouse assessed as tumor growth inhibition at 20 mg/kg, po administered once every 5 days and measured after 15 days by digital caliper analysis; format: functional, organism-based; details: time 15.0 day
# [16] = test system: 4T1; assay: Antitumor activity against mouse 4T1 cells implanted in naive BALB/c mouse assessed as increase in Ki67-positive CD4 T cells in tumor at 20 mg/kg, po administered once every 5 days by FACS analysis (reference value: 4.4%); format: functional; details: time 5 day
# [17] = molecular target: T1, Stimulator of interferon genes protein; assay: Agonist activity at STING in human THP-1 cells harboring IRF-inducible luciferase reporter construct assessed as increase in IRF3 phosphorylation measured after 3 hrs by Western blot analysis; format: cell-based; details: filed as agonist, dose 10-50 µM, DDE = dose-dependent effect
# [18] = Permeability of the compound in PBS buffer incubated for 5 hrs by PAMPA-based LC-MS/MS analysis; format: ADME; details: read-out: permeability
# [19] = test system: Stimulator of interferon genes protein (Homo sapiens), Q86WV6 [UNDEFINED MUTATION]; assay: Binding affinity to recombinant human STING AQ variant expressed in Escherichia coli BL21 (DE3) assessed as thermal stabilization by measuring change in melting temperature at 0.1 mM incubated for 30 mins by SYPRO orange dye based differential scanning fluorimetry assay
# [20] = molecular target: T1, Stimulator of interferon genes protein; assay: Agonist activity at STING in human THP-1 cells harboring IRF-inducible luciferase reporter construct assessed as increase in IRF3 phosphorylation at 50 uM measured after 3 hrs by Western blot analysis; format: cell-based; details: filed as agonist
# [21] = Stability in rat liver microsomes assessed as parent compound remaining at 1 uM incubated for 2 hrs in presence of NADPH by LC-MS/MS analysis; format: ADME, Microsome; details: read-out: Stability
# [22] = Volume of distribution at steady state in Sprague-Dawley rat at 5 mg/kg, iv measured for 1440 mins by LC-MS/MS analysis; format: ADME, organism-based; details: in vivo, read-out: Vdss
# [23] = test system: Stimulator of interferon genes protein (Homo sapiens), Q86WV6 [UNDEFINED MUTATION]; assay: Binding affinity to recombinant human STING R232 variant expressed in Escherichia coli BL21 (DE3) assessed as thermal stabilization by measuring change in melting temperature at 0.1 mM incubated for 30 mins by SYPRO orange dye based differential scanning fluorimetry assay
# [24] = molecular target: T2, Stimulator of interferon genes protein (Mus musculus); assay: Agonist activity at STING in mouse RAW264.7 cells harboring IRF-inducible luciferase reporter construct assessed as increase in […] mRNA expression at 10 to 50 uM measured after 1 hr by qRT-PCR analysis; format: cell-based; details: filed as agonist, dose 10-50 µM
# [25] = Stability in rat plasma assessed as interconversion into (S)-4-(5,6-Dimethoxybenzo[b]selenophen-2-yl)-2-ethyl-4-oxobutanoic acid incubated for 24 hrs by normal-phase HPLC analysis; format: ADME, cell-free
# [26] = test system: MC-38; assay: Antitumor activity against mouse MC38 cells implanted in C57BL/6 mouse assessed as tumor growth regression at 30 mg/kg, po administered once every 3 days and measured after 21 days by digital caliper analysis relative to control; format: functional; details: time 21 day
# [27] = Toxicity in naive BALB/c mouse implanted with mouse 4T1-Luc cells assessed as reduction in body weight at 20 mg/kg, po measured after 15 days; format: organism-based; details: in vivo, 360 h, time 15 day
# T1 sequence (Q86WV6 whole entry): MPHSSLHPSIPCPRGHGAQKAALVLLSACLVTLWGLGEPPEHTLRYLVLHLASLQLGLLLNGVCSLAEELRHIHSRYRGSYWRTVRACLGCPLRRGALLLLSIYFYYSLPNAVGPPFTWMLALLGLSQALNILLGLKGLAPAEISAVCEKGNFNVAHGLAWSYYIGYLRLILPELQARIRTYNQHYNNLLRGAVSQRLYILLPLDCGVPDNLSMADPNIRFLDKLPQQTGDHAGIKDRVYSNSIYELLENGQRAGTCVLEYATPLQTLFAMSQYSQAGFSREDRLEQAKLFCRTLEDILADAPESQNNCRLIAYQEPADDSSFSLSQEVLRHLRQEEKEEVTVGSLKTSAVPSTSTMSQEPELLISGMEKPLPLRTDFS
# Sequence of Stimulator of interferon genes protein (Homo sapiens), Q86WV6 [UNDEFINED MUTATION] (Q86WV6 whole entry, looked up, stated change not applied): as the sequence (Q86WV6 whole entry) above
# Sequence of hERG (Q12809 whole entry): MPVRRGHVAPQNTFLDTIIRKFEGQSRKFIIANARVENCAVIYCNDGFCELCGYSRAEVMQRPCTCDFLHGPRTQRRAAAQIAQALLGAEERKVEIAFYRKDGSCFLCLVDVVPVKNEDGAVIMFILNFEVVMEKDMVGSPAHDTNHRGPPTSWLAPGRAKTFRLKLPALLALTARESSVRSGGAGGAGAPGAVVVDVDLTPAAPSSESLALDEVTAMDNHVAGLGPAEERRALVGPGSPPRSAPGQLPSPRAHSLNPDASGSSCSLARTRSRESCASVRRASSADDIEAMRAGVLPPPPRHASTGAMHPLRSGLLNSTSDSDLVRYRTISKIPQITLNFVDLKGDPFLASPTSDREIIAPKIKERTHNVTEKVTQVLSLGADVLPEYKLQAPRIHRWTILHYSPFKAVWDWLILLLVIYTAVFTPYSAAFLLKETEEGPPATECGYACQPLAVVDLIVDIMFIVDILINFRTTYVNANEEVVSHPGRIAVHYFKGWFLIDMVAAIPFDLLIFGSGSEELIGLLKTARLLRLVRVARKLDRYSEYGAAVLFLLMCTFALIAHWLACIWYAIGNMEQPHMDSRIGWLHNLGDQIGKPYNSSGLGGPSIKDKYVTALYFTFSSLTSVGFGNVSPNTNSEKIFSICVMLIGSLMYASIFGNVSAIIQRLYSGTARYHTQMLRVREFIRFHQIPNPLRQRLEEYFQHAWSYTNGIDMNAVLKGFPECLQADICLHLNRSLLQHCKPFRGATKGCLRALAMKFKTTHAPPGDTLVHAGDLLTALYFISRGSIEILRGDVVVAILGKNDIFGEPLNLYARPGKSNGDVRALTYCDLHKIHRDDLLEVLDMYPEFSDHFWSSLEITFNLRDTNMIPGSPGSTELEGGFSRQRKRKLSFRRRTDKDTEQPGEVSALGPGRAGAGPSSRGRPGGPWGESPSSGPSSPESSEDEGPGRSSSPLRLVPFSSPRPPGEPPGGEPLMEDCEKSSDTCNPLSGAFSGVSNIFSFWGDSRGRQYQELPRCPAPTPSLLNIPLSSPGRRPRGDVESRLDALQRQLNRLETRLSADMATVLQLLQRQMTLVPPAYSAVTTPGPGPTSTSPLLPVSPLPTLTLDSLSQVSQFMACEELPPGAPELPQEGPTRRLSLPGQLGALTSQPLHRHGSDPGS
structure (smiles),measurement,setting,value
CC[C@H](CC(=O)c1cc2cc(OC)c(OC)cc2[se]1)C(=O)O,EC50,[1],9.24 µM
same,Stability,[2],Stable
same,fold change (FC),[3],37
same,Activity,[4],Active
same,clearance,[5],2.83 mL/min/kg
same,Activity,[6],Active
same,Activity,[7],100%
same,Activity,[8],Active
same,Activity,[9],Active
same,AUC(0-inf),[10],316 µg·h/mL
same,Activity,[11],Non-Toxic
same,"inhibition at 5 min, 10 µM",[12],-0.7%
same,Activity,[13],100%
same,half-life,[14],1.04 h
same,Activity,[15],Active
same,Activity,[16],25.4%
same,Activity,[17],Dde
same,Papp at 5 h,[18],2.04 ×10⁻⁶ cm/s
same,ΔTm,[19],30.3 °C
same,Activity,[20],Active
same,"remaining at 2 h, 1 µM",[21],100%
same,Vd,[22],0.26 L/kg
same,ΔTm,[23],18.1 °C
same,Activity,[24],Active
same,Stability,[25],Stable
same,Activity,[26],100%
same,Activity,[27],Non-Toxic

# — ChEMBL document CHEMBL5214933, “Discovery of Selenium-Containing STING Agonists as Orally Available Antitumor Agents” (J Med Chem, 2022)
